Test results: article PMC9011347, “Small-Molecule Inhibitors Targeting Lipolysis in Human Adipocytes” (Journal of the American Chemical Society, 2022)

Legend:
Test in all cases: Off-target lipid hydrolase assay, Expi293 lysates
Format in all cases: biochemical
[1] = target: T1, PNPLA9 (Homo sapiens, UniProt O60733); details: NG-497 100 µM, substrate PG
T1 construct: made in house; host or cells: Expi293 cells, lysate
Experimental: (§1) Fig. S3: Investigation of off-target effects of NG-497 on structurally and functionally related lipid hydrolases. (a) […]
(§2) NG-497, inhibited PNPLA1/CGI-58-dependent ω-O-acylceramide formation. (b-h) Enzymes were overexpressed in Expi293 cells and cell lysates were used as source of enzymatic activity. Cell lysates were incubated with the indicated substrates 1-oleoyl phosphatidylcholine (LPC), di-oleoyl phosphatidic acid (PA), di-octanoyl phosphatidylglycerol (PG), or para-nitrophenylvalerate (pNPV). Experiments were performed in the presence or absence of NG-497 (100 µM) and the formation of reaction products was monitored. Cell lysates of LacZ-transfected cells were used to detect basal cellular activity. As positive controls, enzymes were inactivated with lipase inhibitors Orlistat (40 µM), R-BEL (10 µM), KLH-45 (20 nM), HSLi (10 µM), or PMSF (10µM).
(§3) Data were calculated relative to the basal activity detected in LacZ-transfected controls. […]
(§4) LPL activity was inhibited using an anti-LPL antibody. All data are presented as mean ± S.D. Statistical significance was determined via ANOVA followed by Bonferroni post hoc test ( ***, p < 0.001).
(§5) (1 picture or pasted object on this page, not shown here) […]
(§6) 2-mercaptoethanol, 4% sodium dodecyl sulfate, 20% glycerin, bromophenol blue) at 98°C for 10 min. For detection of protein expression, anti-Xpress (Thermo Fisher Scientific #R910-25), anti-mouse-HRP Trueblot (Rockland #18-8817-33), and anti-FLAG HRP (MiliporeSigma #A8592) antibodies were used.
(§7) Analysis of toxicity in HepG2 hepatocytes. For LDH-based viability assays, HepG2 cells were seeded in 96-well plates in DMEM (Gibco) containing 100 IU/ml penicillin, 100 IU/ml streptomycin (MilliporeSigma), and 3% heat-inactivated FCS. […]
(§8) Serum stability of ATGL inhibitors. Inhibitors were incubated in 200 µl human serum for 0 and 3 h at 37°C and extracted in 1 ml MTBE/methanol (3/1, v/v) containing acetic acid/butylated hydroxytoluene (500nM). The extraction mixture was shaken at 1,400 x rpm for 1 h at RT and centrifuged for 10 min at 13,000 x rpm for phase separation. 700 µl of the upper, organic phase were collected, dried under a stream of nitrogen, and lipids resolved in 200 µl methanol/isopropanol/H2O (6/3/1), for UPLC- […]
(§9) Chromatographic separation was modified after Knittelfelder et al.2 using an AQUITY UPLC system (Waters Corporation, Milford, USA) equipped with a ZORBAX Eclipse XDB-C18- column (3 × 30 mm, 1.8 µm; Agilent Technologies, Santa Clara, USA) starting a 15 min gradient with 80% solvent A (water/methanol, 1/1, v/v) and 20% solvent B (2-propanol). Both solvents contained ammonium acetate (10 mM), formic acid (0.1 vol%) and phosphoric acid (8 µM) and the column was kept at 50°C. […]

[2] = target: T2, PNPLA7 (Homo sapiens, UniProt Q6ZV29); details: NG-497 100 µM, substrate LPC
T2 construct: made in house; host or cells: Expi293 cells, lysate
T2 sequence (Q6ZV29 whole entry): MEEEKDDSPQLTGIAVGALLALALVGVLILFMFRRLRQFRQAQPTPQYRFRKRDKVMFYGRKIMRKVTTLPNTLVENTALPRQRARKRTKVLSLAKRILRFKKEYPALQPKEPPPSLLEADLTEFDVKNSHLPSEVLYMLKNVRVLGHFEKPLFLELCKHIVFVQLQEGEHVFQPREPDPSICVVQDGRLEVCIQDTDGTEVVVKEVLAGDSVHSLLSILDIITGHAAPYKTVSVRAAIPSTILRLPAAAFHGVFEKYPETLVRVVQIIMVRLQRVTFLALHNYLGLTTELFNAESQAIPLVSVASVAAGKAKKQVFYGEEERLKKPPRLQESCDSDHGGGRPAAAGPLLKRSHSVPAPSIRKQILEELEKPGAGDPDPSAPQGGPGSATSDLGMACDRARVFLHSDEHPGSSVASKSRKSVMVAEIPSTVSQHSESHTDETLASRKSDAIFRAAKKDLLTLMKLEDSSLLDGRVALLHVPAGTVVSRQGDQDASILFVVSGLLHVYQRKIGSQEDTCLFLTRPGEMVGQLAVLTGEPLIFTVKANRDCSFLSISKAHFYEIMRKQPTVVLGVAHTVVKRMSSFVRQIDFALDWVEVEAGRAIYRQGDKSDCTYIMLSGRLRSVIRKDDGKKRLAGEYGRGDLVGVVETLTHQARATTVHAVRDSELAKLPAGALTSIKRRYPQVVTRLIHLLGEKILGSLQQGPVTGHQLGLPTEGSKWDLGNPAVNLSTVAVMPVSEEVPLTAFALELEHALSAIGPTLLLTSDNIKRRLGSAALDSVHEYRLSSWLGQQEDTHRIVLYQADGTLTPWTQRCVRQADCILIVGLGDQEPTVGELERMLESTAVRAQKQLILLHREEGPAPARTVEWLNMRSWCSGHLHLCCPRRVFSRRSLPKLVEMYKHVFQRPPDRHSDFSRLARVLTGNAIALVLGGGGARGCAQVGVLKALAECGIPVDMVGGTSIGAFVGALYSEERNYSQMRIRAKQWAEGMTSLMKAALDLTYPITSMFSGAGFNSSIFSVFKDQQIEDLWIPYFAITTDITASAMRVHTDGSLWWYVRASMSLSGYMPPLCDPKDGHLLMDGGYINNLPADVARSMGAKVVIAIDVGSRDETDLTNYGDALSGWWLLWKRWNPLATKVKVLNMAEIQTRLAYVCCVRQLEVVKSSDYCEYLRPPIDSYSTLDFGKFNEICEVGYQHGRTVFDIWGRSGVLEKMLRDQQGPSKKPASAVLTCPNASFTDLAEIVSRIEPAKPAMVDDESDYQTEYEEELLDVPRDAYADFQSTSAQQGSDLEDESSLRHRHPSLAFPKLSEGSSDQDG
Experimental: as §1, §2, §3, §4, §5, §6, §7, §8, §9

[3] = target: T3, PNPLA8 (Homo sapiens, UniProt Q9NP80); details: NG-497 100 µM, substrate PA
T3 construct: made in house; host or cells: Expi293 cells, lysate
T3 sequence (Q9NP80 whole entry): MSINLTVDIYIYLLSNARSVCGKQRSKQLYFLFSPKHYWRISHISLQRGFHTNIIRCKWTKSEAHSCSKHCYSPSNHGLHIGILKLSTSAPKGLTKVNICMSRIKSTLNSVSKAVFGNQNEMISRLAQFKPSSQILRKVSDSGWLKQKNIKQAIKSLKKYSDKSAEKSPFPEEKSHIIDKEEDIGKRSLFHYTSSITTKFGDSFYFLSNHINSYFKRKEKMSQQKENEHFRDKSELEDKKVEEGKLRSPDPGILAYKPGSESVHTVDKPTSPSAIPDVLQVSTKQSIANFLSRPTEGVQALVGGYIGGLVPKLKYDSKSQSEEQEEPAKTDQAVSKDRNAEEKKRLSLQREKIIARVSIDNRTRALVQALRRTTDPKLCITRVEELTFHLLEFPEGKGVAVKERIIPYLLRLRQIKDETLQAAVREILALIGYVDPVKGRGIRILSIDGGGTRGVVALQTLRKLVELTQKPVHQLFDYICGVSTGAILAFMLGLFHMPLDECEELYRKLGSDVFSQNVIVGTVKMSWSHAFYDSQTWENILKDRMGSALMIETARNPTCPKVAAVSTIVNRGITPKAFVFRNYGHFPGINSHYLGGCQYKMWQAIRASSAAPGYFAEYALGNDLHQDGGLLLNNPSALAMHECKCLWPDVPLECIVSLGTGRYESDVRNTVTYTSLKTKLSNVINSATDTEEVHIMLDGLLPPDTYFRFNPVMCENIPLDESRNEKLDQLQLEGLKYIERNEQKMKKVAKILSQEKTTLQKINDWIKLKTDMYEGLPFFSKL
Experimental: as §1, §2, §3, §4, §5, §6, §7, §8, §9

[4] = target: T4, PNPLA6 (Homo sapiens, UniProt Q8IY17); details: NG-497 100 µM, substrate LPC
T4 construct: made in house; host or cells: Expi293 cells, lysate
T4 sequence (Q8IY17 whole entry): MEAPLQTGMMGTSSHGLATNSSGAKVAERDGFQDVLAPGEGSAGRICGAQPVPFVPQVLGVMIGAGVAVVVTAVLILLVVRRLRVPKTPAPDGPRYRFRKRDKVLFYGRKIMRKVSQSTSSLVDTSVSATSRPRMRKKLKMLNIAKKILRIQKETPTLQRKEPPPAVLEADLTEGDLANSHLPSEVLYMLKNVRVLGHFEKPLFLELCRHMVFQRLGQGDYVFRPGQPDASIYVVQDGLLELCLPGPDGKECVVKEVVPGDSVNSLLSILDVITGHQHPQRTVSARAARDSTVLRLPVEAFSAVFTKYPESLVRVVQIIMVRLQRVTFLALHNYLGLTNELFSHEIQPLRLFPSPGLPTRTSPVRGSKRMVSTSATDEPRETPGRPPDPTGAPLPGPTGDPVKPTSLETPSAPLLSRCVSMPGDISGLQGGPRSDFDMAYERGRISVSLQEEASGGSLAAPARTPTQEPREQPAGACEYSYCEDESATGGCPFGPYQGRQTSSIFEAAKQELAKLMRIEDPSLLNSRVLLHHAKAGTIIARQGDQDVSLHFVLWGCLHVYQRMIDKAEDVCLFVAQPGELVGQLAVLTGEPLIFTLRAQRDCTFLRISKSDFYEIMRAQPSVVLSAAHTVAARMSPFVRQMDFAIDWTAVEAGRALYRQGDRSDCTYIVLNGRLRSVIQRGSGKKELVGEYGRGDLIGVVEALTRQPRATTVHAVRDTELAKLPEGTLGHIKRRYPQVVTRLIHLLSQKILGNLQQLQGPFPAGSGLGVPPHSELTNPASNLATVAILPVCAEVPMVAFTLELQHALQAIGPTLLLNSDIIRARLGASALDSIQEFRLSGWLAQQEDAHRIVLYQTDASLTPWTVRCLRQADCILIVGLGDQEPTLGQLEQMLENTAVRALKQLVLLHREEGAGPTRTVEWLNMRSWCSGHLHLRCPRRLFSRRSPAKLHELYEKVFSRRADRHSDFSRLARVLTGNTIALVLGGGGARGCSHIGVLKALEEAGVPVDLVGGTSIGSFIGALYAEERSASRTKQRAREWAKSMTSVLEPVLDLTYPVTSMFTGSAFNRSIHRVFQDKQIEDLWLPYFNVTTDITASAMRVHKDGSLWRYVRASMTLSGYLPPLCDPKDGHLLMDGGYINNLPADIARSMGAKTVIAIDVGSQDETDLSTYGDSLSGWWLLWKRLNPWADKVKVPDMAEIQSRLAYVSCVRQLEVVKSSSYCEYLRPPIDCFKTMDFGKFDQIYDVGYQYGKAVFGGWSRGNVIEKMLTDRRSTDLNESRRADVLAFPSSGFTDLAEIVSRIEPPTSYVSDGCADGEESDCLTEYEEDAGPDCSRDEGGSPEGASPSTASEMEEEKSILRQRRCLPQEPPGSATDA
Experimental: as §1, §2, §3, §4, §5, §6, §7, §8, §9

T1 sequence (O60733 whole entry): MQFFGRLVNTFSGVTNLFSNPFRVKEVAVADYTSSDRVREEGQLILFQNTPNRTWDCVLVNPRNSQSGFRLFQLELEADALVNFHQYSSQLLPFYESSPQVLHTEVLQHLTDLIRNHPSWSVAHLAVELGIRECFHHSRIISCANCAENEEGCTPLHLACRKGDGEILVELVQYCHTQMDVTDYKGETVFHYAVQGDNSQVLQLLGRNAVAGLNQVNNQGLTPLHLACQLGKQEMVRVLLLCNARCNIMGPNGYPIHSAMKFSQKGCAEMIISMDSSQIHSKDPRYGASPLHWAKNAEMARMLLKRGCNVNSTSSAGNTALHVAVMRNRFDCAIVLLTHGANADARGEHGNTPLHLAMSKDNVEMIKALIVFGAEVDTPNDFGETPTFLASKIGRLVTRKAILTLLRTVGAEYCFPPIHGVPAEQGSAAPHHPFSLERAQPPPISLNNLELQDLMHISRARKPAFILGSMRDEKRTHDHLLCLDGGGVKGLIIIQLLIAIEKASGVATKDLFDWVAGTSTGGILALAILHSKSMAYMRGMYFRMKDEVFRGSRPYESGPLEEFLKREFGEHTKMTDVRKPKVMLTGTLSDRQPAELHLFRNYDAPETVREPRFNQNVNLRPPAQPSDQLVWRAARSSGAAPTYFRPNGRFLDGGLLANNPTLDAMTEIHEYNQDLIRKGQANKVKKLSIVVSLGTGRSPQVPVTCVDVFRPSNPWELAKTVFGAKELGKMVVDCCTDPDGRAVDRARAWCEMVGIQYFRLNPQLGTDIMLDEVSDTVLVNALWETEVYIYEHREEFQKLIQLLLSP

CCOc1ccc(-c2cc(OC)cc(C(=O)OC(C)C)n2)cc1 [NG-497]
did not observe inhibition: inhibition of PNPLA9 [1] | inhibition of PNPLA7 [2] | inhibition of PNPLA8 [3] | inhibition of PNPLA6 [4]
